Series [1] relates to rat bone marrow cells. Briefly: Bone nodule formation action in rat bone marrow cells. It counts as cell-based. As for the experimental part:
Bone Nodule Formation Action in Rat Bone Marrow Cells
In order to investigate osteogenesis promoting action of the compounds of the present invention, the compounds were made to act on cultured rat bone marrow cells, and the number of formed bone nodule was counted.
As rat bone marrow cells, mesenchymal cells (KEM100) derived from rat bone marrow purchased from Dainippon Pharmaceutical were used. The cells stored in liquid nitrogen were thawed at 37° C., then suspended in a phosphate-buffered saline, and centrifuged at 900 rpm for 5 minutes. The supernatant was removed, and the cells were suspended again in a MEM culture medium (produced by GIBCO) containing 10% fetal bovine serum (produced by GIBCO). After the number of cells was counted, the cells were inoculated on a 12-well plate (produced by IWAKI) at a cell density of 1×10^4 cells/cm^2, and cultured at 37° C. in a 5% CO2 incubator. From the next day of the inoculation, the medium was exchanged with the α MEM culture medium containing 10% fetal bovine serum every 2 or 3 days, and the cells were proliferated to the confluent state. The addition of the compound was conducted from the next day after the cells reached confluent. […]

The target in series [2] is T1, human EP4 receptor (Homo sapiens, UniProt P35408).
T1 construct: expressed in transfected cells
Nature of the series: Agonist activity measurement (cAMP production) using human EP4 receptor expressing HEK293 cells. The format is cell-based. Particulars: test compound concentration of 10 μM, HEK293 stably expressing human EP4. As for the experimental part:
Agonist Activity Measurement Using Human EP4 Receptor Expressing Cells
In order to investigate EP4 receptor agonist activity of the compounds of the present invention, cAMP production was measured by using HEK293 in which the human EP4 receptor was stably expressed.
As a result of searching for prostaglandin E receptors using Refseq Database, the gene information of human EP4 (NM_000958) receptor was obtained. On the basis of the sequence information, the human EP4 receptor gene was cloned by PCR using human cDNA as a template in a conventional manner to establish HEK293 in which the human EP4 receptor was stably expressed. These cells were inoculated on a 96-well poly-D-lysine coated plate at a density of 2×10^4 cells/well, and cultured for 1 day. The medium in the wells was removed by aspiration, 80 μL of Dulbecco's modified Eagle's medium was added to each well, and the cells were incubated at 37° C. for 15 minutes. Then, 20 μL of an assay medium (Dulbecco's modified Eagle's medium containing 100 mM HEPES and 1 mM IBMX) containing PGE2 or a test compound (at 5-fold concentration of the final concentration) was added to start the reaction, and the reaction was allowed at 37° C. for 30 minutes. Then, the medium was removed by aspiration, and the reaction was terminated by adding 100 μL of Assay/Lysis Buffer included in cAMP Screen Kit (produced by Applied Biosystems). Then, the cells were incubated at 37° C. for 30 minutes, and used as a sample for cAMP quantification. By using this sample, amount of cAMP in the sample was quantified according to the method attached to cAMP Screen Kit.

T1 sequence (P35408 whole entry): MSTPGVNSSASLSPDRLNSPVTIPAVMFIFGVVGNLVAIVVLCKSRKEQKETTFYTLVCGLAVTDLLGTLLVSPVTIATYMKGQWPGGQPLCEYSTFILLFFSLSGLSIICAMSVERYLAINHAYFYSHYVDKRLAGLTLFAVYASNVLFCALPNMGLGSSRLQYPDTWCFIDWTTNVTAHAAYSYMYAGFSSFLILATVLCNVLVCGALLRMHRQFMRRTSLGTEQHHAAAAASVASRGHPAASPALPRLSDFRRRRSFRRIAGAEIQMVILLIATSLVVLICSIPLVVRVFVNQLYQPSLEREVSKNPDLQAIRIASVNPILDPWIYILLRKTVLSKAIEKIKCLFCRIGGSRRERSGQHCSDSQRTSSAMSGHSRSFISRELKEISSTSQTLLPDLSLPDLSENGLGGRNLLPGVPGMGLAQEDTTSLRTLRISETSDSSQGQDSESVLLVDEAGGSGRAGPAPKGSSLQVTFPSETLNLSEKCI

With `O=C(O)c1ccc(CCN2C(=O)CCCN2CCC(O)Cc2cccc(C(F)(F)F)c2)cc1` (stereo not shown) [IAH-H001, 4-[2-(2-{3-hydroxy-4-[3-(trifluoromethyl)phenyl]butyl}-6-oxotetrahydropyridazin-1-yl)ethyl]benzoic acid], in series [1] (concentration ranging from 1 nM to 10 μM, von Kossa staining 21 to 28 days after addition), the “bone nodule formation promoting action (number of mineralized bone nodule formed)” value is “exhibited an bone nodule formation promoting action in a dose-dependent manner”. Also, the cytotoxicity entry in series [1] (rat bone marrow cells, 1 nM to 10 μM) is listed as “no cytotoxicity”. The “increase of cAMP” value in series [2] was “Increase of cAMP was observed”.
In the case of `O=C(O)c1ccc(CCN2C(=O)CCCN2CCC(O)c2ccccc2)cc1` (stereo not shown) [IAH-H002], in series [2], the “increase of cAMP” value is on record as “Increase of cAMP was observed”.
The same measure, in the same setting: as for `O=C(O)c1ccc(CCN2C(=O)CCCN2CCC(O)c2ccc(F)cc2)cc1` (stereo not shown) [IAH-H003, 4-(2-{2-[3-hydroxy-3-(4-fluorophenyl)propyl]-6-oxotetrahydro-pyridazin-1-yl}ethyl)benzoic acid], the entry is “Increase of cAMP was observed”.
Same read-out and setting: as for `O=C(O)c1ccc(CCN2C(=O)CCCN2CCC(O)c2cccc(-c3ccc(F)cc3)c2)cc1` (stereo not shown) [IAH-H004, 4-[2-(2-{3-hydroxy-3-[3-(4-fluorophenyl)phenyl]propyl}-6-oxotetrahydropyridazin-1-yl)ethyl]benzoic acid], the entry is “Increase of cAMP was observed”.
Still for that read-out and setting: as for `COc1cccc(CC(O)CCN2CCCC(=O)N2CCc2ccc(C(=O)O)cc2)c1` (stereo not shown) [IAH-H005, 4-(2-{2-[3-hydroxy-4-(3-methoxyphenyl)butyl]-6-oxotetrahydro-pyridazin-1-yl}ethyl)benzoic acid], the entry is “Increase of cAMP was observed”.
On to `O=C(O)c1ccc(CCN2C(=O)CCCN2CCC(O)Cc2cccc(Cl)c2)cc1` (stereo not shown) [IAH-H024, 4-[2-(2-{4-[3-chlorophenyl]-3-hydroxybutyl}-6-oxotetrahydropyridazin-1-yl)ethyl]benzoic acid], for which the “increase of cAMP” value in series [2] was “Increase of cAMP was observed”.
Same read-out and setting: the entry for `O=C(O)COc1cccc(CN2C(=O)CCCN2CCC(O)Cc2cccc(C(F)(F)F)c2)c1` (stereo not shown) [ICH-H001, 2-{3-[(2-{3-hydroxy-4-[3-(trifluoromethyl)phenyl]butyl}-6-oxotetrahydropyridazin-1-yl)methyl]phenyloxy}acetic acid] is “Increase of cAMP was observed”; for `O=C(O)c1cccc(OCCN2C(=O)CCCN2CCC(O)Cc2cccc(C(F)(F)F)c2)c1` (stereo not shown) [IDH-H001, 3-[2-(2-{3-hydroxy-4-[3-(trifluoromethyl)phenyl]butyl}-6-oxotetrahydropyridazin-1-yl)ethyloxy]benzoic acid] it is “Increase of cAMP was observed”.
On the same count and under the same terms, the entry for `O=C(O)c1ccc(OCCN2C(=O)CCCN2CCC(O)Cc2cccc(C(F)(F)F)c2)cc1` (stereo not shown) [IEH-H001, 4-[2-(2-{3-hydroxy-4-[3-(trifluoromethyl)phenyl]butyl}-6-oxo-tetrahydropyridazin-1-yl)ethyloxy]benzoic acid] is “Increase of cAMP was observed”; for `O=C(O)c1cccc(CCCN2C(=O)CCCN2CCC(O)Cc2cccc(C(F)(F)F)c2)c1` (stereo not shown) [IFH-H001, 3-[3-(2-{3-hydroxy-4-[3-(trifluoromethyl)phenyl]butyl}-6-oxo-tetrahydropyridazin-1-yl)propyl]benzoic acid] it is “Increase of cAMP was observed”.
The same measure, in the same setting: as for `O=C(O)c1ccc(CCCN2C(=O)CCCN2CCC(O)Cc2cccc(C(F)(F)F)c2)cc1` (stereo not shown) [IGH-H001, 4-[3-(2-{3-hydroxy-4-[3-(trifluoromethyl)phenyl]butyl}-6-oxotetrahydropyridazin-1-yl)propyl]benzoic acid], the entry is “Increase of cAMP was observed”; as for `O=C(O)c1ccc(CCCN2C(=O)CCCN2CCC(O)Cc2cccc(C(F)(F)F)c2)o1` (stereo not shown) [IHH-H001, 5-[3-(2-{3-hydroxy-4-[3-(trifluoromethyl)phenyl]butyl}-6-oxotetrahydropyridazin-1-yl)propyl]furan-2-carboxylic acid], “Increase of cAMP was observed”; as for `O=C(O)Cc1ccc(CN2C(=O)CCCN2CCC(O)Cc2cccc(C(F)(F)F)c2)cc1` (stereo not shown) [IKH-H001, 2-{4-[(2-{3-hydroxy-4-[3-(trifluoromethyl)phenyl]butyl}-6-oxotetrahydropyridazin-1-yl)methyl]phenyl}acetic acid], “Increase of cAMP was observed”.
Consider `O=C(O)Cc1cccc(CN2C(=O)CCCN2CCC(O)Cc2cccc(C(F)(F)F)c2)c1` (stereo not shown) [ILH-H001, 2-{3-[(2-{3-hydroxy-4-[3-(trifluoromethyl)phenyl]butyl}-6-oxotetrahydropyridazin-1-yl)methyl]phenyl}acetic acid], for which, in series [2], the “increase of cAMP” value is on record as “Increase of cAMP was observed”.
Turning to `O=C(O)C=Cc1cccc(CN2C(=O)CCCN2CCC(O)Cc2cccc(C(F)(F)F)c2)c1` (stereo not shown) [IOH-H001, 3-{3-[(2-{3-hydroxy-4-[3-(trifluoromethyl)phenyl]butyl}-6-oxotetrahydropyridazin-1-yl)methyl]phenyl}acrylic acid], the “increase of cAMP” value in series [2] was “Increase of cAMP was observed”.
The same measure, in the same setting: the entry for `O=C(O)CCc1cccc(CN2C(=O)CCCN2CCC(O)Cc2cccc(C(F)(F)F)c2)c1` (stereo not shown) [IPH-H001, 3-{3-[(2-{3-hydroxy-4-[3-(trifluoromethyl)phenyl]butyl}-6-oxotetrahydropyridazin-1-yl)methyl]phenyl}propionic acid] is “Increase of cAMP was observed”.
Same read-out and setting: as for `O=C(O)c1ccc(CCN2C(=S)CCCN2CCC(O)Cc2cccc(C(F)(F)F)c2)cc1` (stereo not shown) [ITH-H001, 4-[2-(2-{3-hydroxy-4-[3-(trifluoromethyl)phenyl]butyl}-6-thioxotetrahydropyridazin-1-yl)ethyl]benzoic acid], the entry is “Increase of cAMP was observed”.

These data come from US7531533B2, “6-Membered heterocyclic compound and use thereof” (Asahi Kasei Pharma Corporation, priority 2005, dated 2009).
